From US20110053916A1 (Vertex Pharmaceuticals Incorporated, priority 2009, published 2011)

How the values were obtained:
[1] = molecular target: T1, PknB (Mycobacterium tuberculosis, UniProt P9WI81); assay: biochemical; set-up: species or system M. tuberculosis; conditions: 3 nM PknB, 6 uM GarA, 3 μM ATP, 30 min, competitive tight-binding fit, several symbols in a cell = repeat determinations; for Ki: read-out: Ki Values
T1 construct: made in house

[2] = system: Mycobacterium tuberculosis H37Ra; assay: Mycobacterium tuberculosis growth inhibition assay (microtiter dilution, resazurin reduction); type: cell-based; conditions: 7H9 broth, 9 days + 24 h resazurin, lowest concentration inhibiting resazurin reduction by >70%, several symbols in a cell = repeat determinations
In short: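 Resazurin-based microtiter dilution MIC: compounds in 7- or 11-step two-fold series with ~1×10^6 cells/mL H37Ra in 7H9/10% ADC, 9 days at 37 °C, then 24 h with dye. MIC is the lowest concentration giving >70% inhibition of resazurin reduction relative to DMSO controls, by 492/595 nm fluorescence.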

T1 sequence (P9WI81 whole entry): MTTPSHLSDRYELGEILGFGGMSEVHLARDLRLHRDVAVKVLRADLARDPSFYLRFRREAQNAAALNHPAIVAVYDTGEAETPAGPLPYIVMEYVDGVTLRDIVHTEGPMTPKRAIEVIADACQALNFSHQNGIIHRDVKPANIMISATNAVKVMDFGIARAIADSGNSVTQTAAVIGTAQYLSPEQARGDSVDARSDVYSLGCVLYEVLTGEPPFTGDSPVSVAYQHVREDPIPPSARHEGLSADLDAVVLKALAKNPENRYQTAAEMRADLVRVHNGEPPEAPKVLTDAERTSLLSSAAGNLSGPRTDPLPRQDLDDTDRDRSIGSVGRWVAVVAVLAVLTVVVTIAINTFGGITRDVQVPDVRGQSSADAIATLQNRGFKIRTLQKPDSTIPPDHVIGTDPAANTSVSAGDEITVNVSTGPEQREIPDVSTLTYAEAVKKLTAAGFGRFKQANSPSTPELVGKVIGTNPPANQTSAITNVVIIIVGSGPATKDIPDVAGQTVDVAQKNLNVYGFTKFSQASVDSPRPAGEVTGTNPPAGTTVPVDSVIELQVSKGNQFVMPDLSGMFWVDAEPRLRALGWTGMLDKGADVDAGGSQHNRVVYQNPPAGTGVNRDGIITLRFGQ

Structure (SMILES)	Ki [1]	MIC values [2]	Ki Values [1]
NS(=O)(=O)c1ccc(Nc2nccc(Nc3cc(C4CC4)[nH]n3)n2)cc1 [Compound 12, 4-(4-(5-cyclopropyl-1H-pyrazol-3-ylamino)pyrimidin-2-ylamino)benzene sulfonamide]	1 to 10 nM	B+	
CC(C)(C)OC(=O)NCc1ccc(-c2ncc(Cl)c(Nc3cc(C4CC4)n[nH]3)n2)s1 [Compound 261, tert-butyl [[5-[5-chloro-4-[(5-cyclopropyl-2H-pyrazol-3-yl)amino]-pyrimidin-2-yl]-2-thienyl]methylamino]formate]	100 to 500 nM	B++	
C#Cc1cnc(-c2ccc(C(C)(C)C#N)s2)nc1Nc1cc(C2CC2)[nH]n1 [Compound 237, 2-[5-[4-[(5-cyclopropyl-1H-pyrazol-3-yl)amino]-5-ethynyl-pyrimidin-2-yl]-2-thienyl]-2-methyl-propanenitrile]	1 to 10 nM	B++	
C#Cc1cnc(N2CCCC2C(=O)OC)nc1Nc1cc(C2CC2)n[nH]1 (centres unmarked) [Compound 200, methyl 1-[4-[(5-cyclopropyl-2H-pyrazol-3-yl)amino]-5-ethynyl-pyrimidin-2-yl]pyrrolidine-2-carboxylate]		B, C	B, D, D
CN(C)CCNS(=O)(=O)c1ccc(-c2ncc(Cl)c(Nc3cc(C4CC4)[nH]n3)n2)s1 [Compound 79, 5-[5-chloro-4-[(5-cyclopropyl-1H-pyrazol-3-yl)amino]-pyrimidin-2-yl]-N-(2-dimethylaminoethyl)thiophene-2-sulfonamide]	10 to 50 nM	B+, B	
Cc1cc(-c2ccc(S(N)(=O)=O)s2)nc(Nc2cc(C3CC3)n[nH]2)n1 [Compound 322, 5-[2-[(5-cyclopropyl-2H-pyrazol-3-yl)amino]-6-methyl-pyrimidin-4-yl]thiophene-2-sulfonamide]	1 to 10 nM	B++	
NS(=O)(=O)c1ccc(-c2nccc(Nc3cc(C4CC4)[nH]n3)n2)cc1 [Compound 323, 4-[4-[(5-cyclopropyl-1H-pyrazol-3-yl)amino]pyrimidin-2-yl]benzenesulfonamide]	10 to 50 nM	B++	
COc1cc(Nc2cc(C3CC3)n[nH]2)nc(-c2ccc(S(N)(=O)=O)s2)n1 [Compound 293, 5-[4-[(5-cyclopropyl-2H-pyrazol-3-yl)amino]-6-methoxy-pyrimidin-2-yl]thiophene-2-sulfonamide]	100 to 500 nM	B++	
CC(O)c1ccc(-c2ncc(F)c(Nc3cc(C4CC4)[nH]n3)n2)s1 (stereo in doubt) [Compound 144, (S)-1-(5-(4-(5-cyclopropyl-1H-pyrazol-3-ylamino)-5-fluoropyrimidin-2-yl)thiophen-2yl)ethanol]	10 to 50 nM	B++	
CC(C#N)c1ccc(-c2ncc(Cl)c(Nc3cc(C4CC4)[nH]n3)n2)s1 (centres unmarked) [Compound 226, 2-[5-[5-chloro-4-[(5-cyclopropyl-1H-pyrazol-3-yl)amino]-pyrimidin-2-yl]-2-thienyl]propanenitrile]	10 to 50 nM	B++	
Cc1cnc(-c2ccc(S(=O)(=O)NC(C)(C)C)s2)nc1Nc1cc(C2CC2)n(C)n1 [Compound 149, 5-[4-[(5-cyclopropyl-1-methyl-pyrazol-3-yl)amino]-5-methyl-pyrimidin-2-yl]-N-tert-butyl-thiophene-2-sulfonamide]	> 4000 nM	B+	
CN(CCO)S(=O)(=O)c1ccc(-c2ncc(Cl)c(Nc3cc(C4CC4)[nH]n3)n2)s1 [Compound 129, 5-(5-Chloro-4-(5-cyclopropyl-1H-pyrazol-3-ylamino)pyrimidin-2-yl)-N-(2-hydroxyethyl)-N-methylthiophene-2-sulfonamide]	1 to 10 nM	B++	
NS(=O)(=O)c1ccc(-c2ncc(Cl)c(Nc3cc(C4CC4)[nH]n3)n2)o1 [Compound 240, 5-(5-chloro-4-(5-cyclopropyl-1H-pyrazol-3-ylamino)pyrimidin-2-yl)furan-2-sulfonamide]	10 to 50 nM	B++	
[H]/N=C(\N)c1ccc(-c2ncc(Cl)c(Nc3cc(C4CC4)[nH]n3)n2)s1 [Compound 205, 5-(5-chloro-4-(5-cyclopropyl-1H-pyrazol-3-ylamino)pyrimidin-2-yl)thiophene-2-carboximidamide]		B, C	A, B**
COCCNS(=O)(=O)c1ccc(Nc2nccc(Nc3cc(C4CC4)n[nH]3)n2)cc1 [Compound 112, 4-[[4-[(5-cyclopropyl-2H-pyrazol-3-yl)amino]pyrimidin-2-yl]amino]-N-(2-methoxyethyl)benzenesulfonamide]	10 to 50 nM	B+	
Oc1cccc(-c2ncc(Cl)c(Nc3cc(C4CC4)[nH]n3)n2)c1 [Compound 104, 3-[5-chloro-4-[(5-cyclopropyl-1H-pyrazol-3-yl)amino]-pyrimidin-2-yl]phenol]		B++, C	A*, A
